{
  "source": "patent US9169254B2",
  "about": "“Spiroimidazolone derivative” (Chugai Seiyaku Kabushiki Kaisha, priority 2009, dated 2015)",
  "data": [
    {"target": "T1, human PTH1 receptor (Homo sapiens, UniProt Q03431)", "T1 sequence (Q03431 27-593)": "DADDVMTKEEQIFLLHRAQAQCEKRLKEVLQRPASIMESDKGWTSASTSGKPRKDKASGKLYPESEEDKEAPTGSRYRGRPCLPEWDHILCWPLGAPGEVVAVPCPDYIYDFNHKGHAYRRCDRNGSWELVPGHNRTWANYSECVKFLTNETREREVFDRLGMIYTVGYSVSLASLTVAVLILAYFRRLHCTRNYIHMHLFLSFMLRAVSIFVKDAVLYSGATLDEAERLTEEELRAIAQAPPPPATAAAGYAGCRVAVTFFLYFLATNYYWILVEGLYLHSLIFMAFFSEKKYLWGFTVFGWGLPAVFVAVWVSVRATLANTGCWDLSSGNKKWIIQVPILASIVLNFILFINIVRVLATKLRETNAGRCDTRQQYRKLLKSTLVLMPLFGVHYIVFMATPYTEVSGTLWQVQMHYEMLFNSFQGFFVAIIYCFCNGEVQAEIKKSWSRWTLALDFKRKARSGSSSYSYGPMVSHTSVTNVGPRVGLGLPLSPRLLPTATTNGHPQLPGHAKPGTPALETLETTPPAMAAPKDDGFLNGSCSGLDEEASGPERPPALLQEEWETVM", "assay": "In vitro cAMP signal activity in HKRK-B7 cells (LLC-PK1 cells overexpressing the human PTH1 receptor)", "format": "cell-based", "conditions": "HKRK-B7 cells; compound at 1×10^−3 M; cAMP produced as percentage of that produced by hPTH(1-34) at 100 nM", "units": {"cAMP production activity (%)": "%"}, "values": [
      {"compound": "Cc1cc(N(CCO)C(=O)C(C)C)ccc1/C=C/S(=O)(=O)N1CCC2(CC1)N=C(c1cccc(OC(F)(F)F)c1)NC2=O", "note": "[Compound 711, N-(2-Hydroxy-ethyl)-N-(3-methyl-4-{(E)-2-[4-oxo-2-(3-trifluoromethoxy-phenyl)-1,3,8-triaza-spiro[4.5]dec-1-ene-8-sulfonyl]-vinyl}-phenyl)-isobutylamide]", "cAMP production activity (%)": 64},
      {"compound": "O=C1NC(c2cccc(OC(F)(F)F)c2)=NC12CCN(S(=O)(=O)CCc1cccc3[nH]ccc13)CC2", "note": "[Compound 305, 8-[2-(1H-indol-4-yl)-ethanesulfonyl]-2-(3-trifluoromethoxy-phenyl)-1,3,8-triaza-spiro[4.5]dec-1-en-4-one]", "cAMP production activity (%)": 73},
      {"compound": "CCCS(=O)(=O)N1CCCC(C2=NC3(CCN(S(=O)(=O)c4cccc(Cl)c4)CC3)C(=O)N2)C1", "note": "(centres unmarked) [Compound 40, 8-(3-chloro-benzenesulfonyl)-2-[1-(propane-1-sulfonyl)-piperidin-3-yl]-1,3,8-triaza-spiro[4.5]dec-1-en-4-one]", "cAMP production activity (%)": 19},
      {"compound": "Cc1cc(N2C(C)(C)C(=O)NS2(=O)=O)cc(C)c1CCS(=O)(=O)N1CCC2(CC1)N=C(C1CCC(C)CC1)NC2=O", "note": "(centres unmarked) [Compound 656, 8-{2-[4-(3,3-dimethyl-1,1,4-trioxo-1λ^6-[1,2,5]thiadiazolidin-2-yl)-2,6-dimethyl-phenyl]-ethanesulfonyl}-2-(4-methyl-cyclohexyl)-1,3,8-triaza-spiro[4.5]dec-1-en-4-one]", "cAMP production activity (%)": 14},
      {"compound": "Cc1cc(C(=O)N2CCC(C)(O)CC2)cc(C)c1/C=C/S(=O)(=O)N1CCC2(CC1)N=C(c1ccc(Cl)c(OCCCC(F)(F)F)c1)NC2=O", "note": "[Compound 1227, 2-[4-chloro-3-(4,4,4-trifluoro-butoxy)-phenyl]-8-{(E)-2-[4-(4-hydroxy-4-methyl-piperidine-1-carbonyl)-2,6-dimethyl-phenyl]-ethenesulfonyl}-1,3,8-triaza-spiro[4.5]dec-1-en-4-one]", "cAMP production activity (%)": 77},
      {"compound": "[2H]C([2H])([2H])C([2H])([2H])C1=CC[C@H](C2=NC3(CCN([S@TB18](=O)(=O)CCc4c(C)cc(N(C)C(N)=O)cc4C)CC3)C(=O)N2)CC1", "note": "[Compound 1149, 1-(4-{2-[2-(4-[1,1,2,2,2-^2H5]ethyl-cyclohex-3-enyl)-4-oxo-1,3,8-triaza-spiro[4.5]dec-1-ene-8-sulfonyl]-ethyl}-3,5-dimethyl-phenyl)-1-methyl-urea]", "cAMP production activity (%)": 98},
      {"compound": "O=C1NC(c2cccc(OC(F)(F)F)c2)=NC12CCN(S(=O)(=O)/C=C/c1cccc3c1ccn3C[C@H](O)CO)CC2", "note": "[Compound 526, 8-{(E)-2-[1-((S)-2,3-dihydroxy-propyl)-1H-indol-4-yl]-ethenesulfonyl}-2-(3-trifluoromethoxy-phenyl)-1,3,8-triaza-spiro[4.5]dec-1-en-4-one]", "cAMP production activity (%)": 83},
      {"compound": "CCCOCCCCCC1=NC2(CCN(S(=O)(=O)CCc3c(C)cc(N(C)C(N)=O)cc3C)CC2)C(=O)N1", "note": "[Compound 1352, 1-(3,5-dimethyl-4-{2-[4-oxo-2-(5-propoxy-pentyl)-1,3,8-triaza-spiro[4.5]dec-1-ene-8-sulfonyl]-ethyl}-phenyl)-1-methyl-urea]", "cAMP production activity (%)": 78},
      {"compound": "O=C1NC(c2cccc(OC(F)(F)F)c2)=NC12CCN(S(=O)(=O)/C=C/c1cc(F)c(OCCC(O)CO)c(F)c1)CC2", "note": "(centres unmarked) [Compound 600, 8-{(E)-2-[4-(3,4-dihydroxy-butoxy)-3,5-difluoro-phenyl]-ethenesulfonyl}-2-(3-trifluoromethoxy-phenyl)-1,3,8-triaza-spiro[4.5]dec-1-en-4-one]", "cAMP production activity (%)": 67},
      {"compound": "Cc1cc(NC(=O)[C@@H](N)CO)ccc1CCS(=O)(=O)N1CCC2(CC1)N=C(c1cccc(C(F)(F)F)c1)NC2=O", "note": "[Compound 886, (S)-2-amino-3-hydroxy-N-(3-methyl-4-{2-[4-oxo-2-(3-trifluoromethyl-phenyl)-1,3,8-triaza-spiro[4.5]dec-1-ene-8-sulfonyl]-ethyl}-phenyl)-propionamide]", "cAMP production activity (%)": 68},
      {"compound": "Cc1cc(N(C)C(=O)OC(C)(C)C)cc(C)c1CCS(=O)(=O)N1CCC2(CC1)N=C(C1CCCN1C(=O)OC(C)(C)C)NC2=O", "note": "(centres unmarked) [Compound 1033, 2-(8-{2-[4-(tert-Butoxycarbonyl-methyl-amino)-2,6-dimethyl-phenyl]-ethanesulfonyl}-4-oxo-1,3,8-triaza-spiro[4.5]dec-1-en-2-yl)-pyrrolidine-1-carboxylic acid tert-butyl ester]", "cAMP production activity (%)": 22},
      {"compound": "Cc1cc(C(=O)N2CCC(N(C)C)CC2)cc(C)c1/C=C/S(=O)(=O)N1CCC2(CC1)N=C(c1cccc(OC(F)(F)F)c1)NC2=O", "note": "[Compound 405, 8-{(E)-2-[4-(4-dimethylamino-piperidine-1-carbonyl)-2,6-dimethyl-phenyl]-ethenesulfonyl}-2-(3-trifluoromethoxy-phenyl)-1,3,8-triaza-spiro[4.5]dec-1-en-4-one]", "cAMP production activity (%)": 7.7},
      {"compound": "CC[C@H]1CC[C@H](C2=NC3(CCN(S(=O)(=O)CCc4ccc(N5C(=O)NC(=O)C5C)cc4C)CC3)C(=O)N2)CC1", "note": "(some centres unmarked) [Compound 879, 1-(4-{2-[2-(4-ethyl-cyclohexyl)-4-oxo-1,3,8-triaza-spiro[4.5]dec-1-ene-8-sulfonyl]-ethyl}-3-methyl-phenyl)-5-methyl-imidazolidine-2,4-dione]", "cAMP production activity (%)": 70},
      {"compound": "CC(=O)N[C@@H]1CCN(C(=O)c2ccc(CCS(=O)(=O)N3CCC4(CC3)N=C(c3cccc(C(F)(F)F)c3)NC4=O)c(C)c2)C1", "note": "[Compound 353, N—[(R)-1-(3-methyl-4-{2-[4-oxo-2-(3-trifluoromethyl-phenyl)-1,3,8-triaza-spiro[4.5]dec-1-ene-8-sulfonyl]-ethyl}-benzoyl)-pyrrolidin-3-yl]-acetamide]", "cAMP production activity (%)": 120},
      {"compound": "Cc1cc(C(=O)N(C)C)ccc1CCS(=O)(=O)N1CCC2(CC1)N=C(c1ccc(OC(F)F)cc1)NC2=O", "note": "[Compound 118, 4-{2-[2-(4-difluoromethoxy-phenyl)-4-oxo-1,3,8-triaza-spiro[4.5]dec-1-ene-8-sulfonyl]-ethyl}-3,N,N-trimethyl-benzamide]", "cAMP production activity (%)": 73},
      {"compound": "CCCCC#CCCCC1=NC2(CCN(S(=O)(=O)/C=C/c3c(C)cc(N(C)C(N)=O)cc3C)CC2)C(=O)N1", "note": "[Compound 1024, 1-{3,5-dimethyl-4-[(E)-2-(2-non-4-ynyl-4-oxo-1,3,8-triaza-spiro[4.5]dec-1-ene-8-sulfonyl)-vinyl]-phenyl}-1-methyl-urea]", "cAMP production activity (%)": 66},
      {"compound": "CC(=O)OC[C@H](CN(C(C)=O)c1ccc(CCS(=O)(=O)N2CCC3(CC2)N=C(c2ccc(F)c(C(F)(F)F)c2)NC3=O)c(C)c1)OC(C)=O", "note": "[Compound 153, acetic acid (S)-1-acetoxymethyl-2-[acetyl-(4-{2-[2-(4-fluoro-3-trifluoromethyl-phenyl)-4-oxo-1,3,8-triaza-spiro[4.5]dec-1-ene-8-sulfonyl]-ethyl}-3-methyl-phenyl)-amino]-ethyl ester]", "cAMP production activity (%)": 59},
      {"compound": "COc1c(N(C)C(=O)OC(C)(C)C)cc(C)c(CCS(=O)(=O)N2CCC3(CC2)N=C([C@H]2CC[C@H](C)CC2)NC3=O)c1C", "note": "[Compound 669, (2-methoxy-3,5-dimethyl-4-{2-[2-(4-methyl-cyclohexyl)-4-oxo-1,3,8-triaza-spiro[4.5]dec-1-ene-8-sulfonyl]-ethyl}-phenyl)-methyl-carbamic acid tert-butyl ester]", "cAMP production activity (%)": 58},
      {"compound": "COc1cc(NC(C)=O)ccc1CCS(=O)(=O)N1CCC2(CC1)N=C(C1CCC(C)CC1)NC2=O", "note": "(centres unmarked) [Compound 655, N-(3-Methoxy-4-{2-[2-(4-methyl-cyclohexyl)-4-oxo-1,3,8-triaza-spiro[4.5]dec-1-ene-8-sulfonyl]-ethyl}-phenyl)-acetamide]", "cAMP production activity (%)": 74},
      {"compound": "O=C(Cc1ccccn1)N1CCCC(C2=NC3(CCN(S(=O)(=O)CCc4cccc5ccccc45)CC3)C(=O)N2)C1", "note": "(centres unmarked) [Compound 435, 8-(2-naphthalen-1-yl-ethanesulfonyl)-2-[1-(2-pyridin-2-yl-acetyl)-piperidin-3-yl]-1,3,8-triaza-spiro[4.5]dec-1-en-4-one]", "cAMP production activity (%)": 17},
      {"compound": "Cc1cc(C(=O)N(C)C)cc(C)c1CCS(=O)(=O)N1CCC2(CC1)N=C(C1CCC(CCC(F)(F)F)CC1)NC2=O", "note": "(centres unmarked) [Compound 1378, 3,5,N,N-Tetramethyl-4-(2-{4-oxo-2-[4-(3,3,3-trifluoro-propyl)-cyclohexyl]-1,3,8-triaza-spiro[4.5]dec-1-ene-8-sulfonyl}-ethyl)-benzamide]", "cAMP production activity (%)": 116},
      {"compound": "Cc1ccc(NCCO)cc1CCS(=O)(=O)N1CCC2(CC1)N=C(C1CCCCC1)NC2=O", "note": "[Compound 275, 2-cyclohexyl-8-{2-[5-(2-hydroxy-ethylamino)-2-methyl-phenyl]-ethanesulfonyl}-1,3,8-triaza-spiro[4.5]dec-1-en-4-one]", "cAMP production activity (%)": 72},
      {"compound": "Cc1cc(C(=O)N2CCCO2)cc(C)c1/C=C/S(=O)(=O)N1CCC2(CC1)N=C(C1CCC(CCC(F)(F)F)CC1)NC2=O", "note": "(centres unmarked) [Compound 992, 8-{(E)-2-[4-(isoxazolidine-2-carbonyl)-2,6-dimethyl-phenyl]-ethenesulfonyl}-2-[4-(3,3,3-trifluoro-propyl)-cyclohexyl]-1,3,8-triaza-spiro[4.5]dec-1-en-4-one]", "cAMP production activity (%)": 65}
    ]}
  ]
}
